The results in this text go back to patent US10301284B2, “Therapeutic inhibitory compounds” (LifeSci Pharmaceuticals, Inc., priority 2016, dated 2019).

Series [1] is described as follows: Pharmacokinetic evaluation, oral exposure in rats. The series is classed as in vivo. The conditions noted are these: male Sprague-Dawley rats, single oral dose 10 mg/kg via oral gavage, plasma. The protocol:
Pharmacokinetic studies of select compounds were performed to assess the pharmacokinetic properties. Male Sprague-Dawley rats were administered a single oral dose of the test compound at 10 mg/kg (dose concentration: 2 mg/mL, dose volume: 5 ml/kg) via oral gavage. Blood samples were collected via jugular vein at pre-dose, post-dose 5 min, 15 min, 30 min, 1 h, 2 h, 4 h, 6 h, 8 h, 10 h and 24 h, and centrifuged (8000 rpm for 6 minutes at 2-8° C.). The resulting plasma fractions were analyzed by LC/MS/MS to determine the concentration of the test compound.

For series [2], the target named is T1, human Plasma Kallikrein (Homo sapiens (Human), UniProt P03952). Description: In vitro enzyme inhibition of human plasma kallikrein (Pro-Phe-Arg-AMC cleavage). The format is biochemical. To be noted: human plasma kallikrein, PFR-AMC substrate, 37° C.; read-out: hPK IC50. In short, it runs like this:
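Human plasma kallikrein preincubated 5 min at 37 °C with compound in 50 mM Tris-HCl pH 7.5, 150 mM NaCl, 0.01% Triton X-100. Reaction started with Pro-Phe-Arg-AMC, fluorescence read every 43 s for 1 h at 37 °C. IC50 from highest mean velocity over 20 reads (~15 min).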

Series [3] deals with T1, human Plasma Kallikrein. Description: Human whole blood kallikrein inhibition (ellagic acid-activated human plasma, Z-FR-2-AMC substrate). The format is biochemical. The protocol: The ability of the compounds disclosed herein to inhibit human plasma kallikrein activity was quantified according to the procedures below.
All dilutions were prepared in an assay buffer comprising 50 mM Tris-HCl pH 7.2, 150 mM NaCl, and 0.01% Triton X-100.
Human plasma was thawed on ice and centrifuged for 15 min at 4° C. to remove platelets. A 1 mM stock solution of ellagic acid was diluted to 8 μM and mixed with human plasma, after removing platelets, at a ratio of 1:0.8. The mixture of human plasma and ellagic acid was further diluted 32-fold in the assay buffer, to yield the final mixture for use in the inhibition assay.
A 22.5 μL volume of the final mixture of human plasma and ellagic acid was added to a 96-well microwell plate and the plate was incubated for 15 min at 37° C.
The test compound solution was prepared to provide final concentrations of 20 μM, 5 μM, 1.25 μM, 312.5 nM, 78.125 nM, 19.531 nM, 4.883 nM, 1.221 nM, 0.305 nM, and 0.076 nM. Each test compound concentration was tested in duplicates.
In addition to the inhibitor control and test wells, the 96 well assay plate included positive control wells which contain the mixture of human plasma and ellagic acid without test compounds, and background wells which contain neither the mixture of human plasma and ellagic acid nor the test compounds. The total volume of liquid in positive control and background wells was brought up to 35 μL using the assay buffer.
The assay plate containing test compounds mixed with human plasma and ellagic acid and appropriate controls was incubated at 37° C. for 5 min. A 10 mM stock solution of substrate Z-FR-2-AMC was diluted to 133.2 μM in the assay buffer, and 15 μL of the diluted substrate was added to each well, to yield a final substrate concentration of 40 μM in each well. The reagents were mixed by shaking the plate gently for 30 sec.
The enzyme reaction was quantified by immediate kinetic reading of the assay plate using excitation/emission wavelengths of 330 nm/440 nm respectively. Fluorescence intensity was recorded for 60 min, using a time interval of 43 sec.
The inhibition activity of the test compounds were evaluated using the IC50 values, calculated according to the dose-response curve of the test compounds, fitted using the “log(inhibitor)−response(variable slope)” equation in GraphPadPrism software (GraphPad Software, Inc.).
The percentage inhibition (EC50) was calculated using the following equation:
[formula] where, Mean(BG) is the average value of the fluorescence intensity of the background wells and Mean(PC) is the average value of the fluorescence intensity of the positive control wells.

[4] abbreviates: human plasma activated with ellagic acid, Z-FR-2-AMC 40 μM, 37° C., read-out: HWB EC50.

Like-named read-outs stand apart in the source and are kept apart here.

T1 sequence (P03952 391-638 limits assumed): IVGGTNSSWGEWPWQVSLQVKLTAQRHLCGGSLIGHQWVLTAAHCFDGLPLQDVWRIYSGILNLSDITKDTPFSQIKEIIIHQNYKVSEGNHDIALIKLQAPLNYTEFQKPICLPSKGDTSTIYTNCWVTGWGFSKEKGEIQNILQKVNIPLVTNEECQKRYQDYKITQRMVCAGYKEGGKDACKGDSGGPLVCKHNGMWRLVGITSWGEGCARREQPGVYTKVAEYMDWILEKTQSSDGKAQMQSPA
T1 sequence (P03952 20-390 partner limits assumed): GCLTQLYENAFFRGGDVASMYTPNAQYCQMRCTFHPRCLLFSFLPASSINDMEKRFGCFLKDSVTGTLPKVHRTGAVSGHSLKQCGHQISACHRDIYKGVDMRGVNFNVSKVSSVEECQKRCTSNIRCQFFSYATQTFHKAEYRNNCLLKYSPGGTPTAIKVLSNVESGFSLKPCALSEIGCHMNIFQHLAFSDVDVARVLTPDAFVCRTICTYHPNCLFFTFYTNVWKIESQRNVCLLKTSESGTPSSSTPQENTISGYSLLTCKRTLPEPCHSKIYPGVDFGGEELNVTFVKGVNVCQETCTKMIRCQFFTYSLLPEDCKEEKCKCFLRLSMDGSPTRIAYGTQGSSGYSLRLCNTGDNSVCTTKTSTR

In general, AUC refers to the area under the concentration-time curve, a measure of exposure. Usually IC50 stands for the point on the concentration scale where inhibition reaches its midpoint. The EC50 is the concentration needed to bring the measured effect to its halfway point. On to `Cc1nc(N)ccc1CNC(=O)c1cn(Cc2ccc3ncc(C(F)(F)F)cc3c2)nc1C#N` [Example 74, N-((6-amino-2-methylpyridin-3-yl)methyl)-3-cyano-1-((3-(trifluoromethyl)quinolin-6-yl)methyl)-1H-pyrazole-4-carboxamide], for which the AUC in series [1] (rat, read-out: AUC) fell in the range of 1000 to 10000 ng·h/mL. Also, the IC50 in series [2] is < 100 nM. For the same compound, the EC50 in series [3] (setting [4]) was < 100 nM.

As to `Cc1nc(N)ccc1CNC(=O)c1nn(Cc2ccc3ncc(Cl)cc3c2)c2ccc(=O)[nH]c12` [Example 139, N-((6-amino-2-methylpyridin-3-yl)methyl)-1-((3-chloroquinolin-6-yl)methyl)-5-oxo-4,5-dihydro-1H-pyrazolo[4,3-b]pyridine-3-carboxamide], the AUC in series [1] (rat, read-out: AUC) is 100 to 1000 ng·h/mL. Further, the IC50 in series [2] is < 100 nM. Further, the EC50 in series [3] is < 100 nM.

On to `Cc1nc(N)ccc1CNC(=O)c1cn(Cc2ccc3ncc(C4CC4)cc3c2)nc1C#N` [Example 66, N-((6-amino-2-methylpyridin-3-yl)methyl)-3-cyano-1-((3-cyclopropylquinolin-6-yl)methyl)-1H-pyrazole-4-carboxamide], for which the AUC in series [1] (rat, read-out: AUC) is 100 to 1000 ng·h/mL. Moreover, in series [2], the IC50 is < 100 nM. Further, the EC50 in series [3] (setting [4]) is < 100 nM.

As to `Cc1cc(N)nc(C)c1CNC(=O)c1cn(Cc2ccc3ncc(C(F)(F)F)cc3c2)nc1C#N` [Example 73, N-((6-amino-2,4-dimethylpyridin-3-yl)methyl)-3-cyano-1-((3-(trifluoromethyl)quinolin-6-yl)methyl)-1H-pyrazole-4-carboxamide], the AUC in series [1] (rat, read-out: AUC) lay in the range of 100 to 1000 ng·h/mL. Besides, in series [2], the IC50 was < 100 nM. Further, the EC50 in series [3] (setting [4]) was < 100 nM.

Turning to `Cc1cc(N)nc(C)c1CNC(=O)c1cn(Cc2ccc3ncc(Cl)cc3c2)c2cncc(C#N)c12` [Example 123, N-((6-amino-2,4-dimethylpyridin-3-yl)methyl)-1-((3-chloroquinolin-6-yl)methyl)-4-cyano-1H-pyrrolo[2,3-c]pyridine-3-carboxamide], in series [1] (rat, read-out: AUC), the AUC is < 100 ng·h/mL. In series [2], the IC50 was < 100 nM. Further, in series [3], the EC50 was < 100 nM.

As for `Cc1cc(N)nc(C)c1CNC(=O)c1cn(Cc2ccc3ncc(Cl)cc3c2)c2nccc(C#N)c12` [Example 127, N-((6-amino-2,4-dimethylpyridin-3-yl)methyl)-1-((3-chloroquinolin-6-yl)methyl)-4-cyano-1H-pyrrolo[2,3-b]pyridine-3-carboxamide], in series [1] (rat, read-out: AUC), the AUC lay in the range of 100 to 1000 ng·h/mL. The 50% inhibitory concentration (IC50) in series [2] is < 100 nM. Also, the EC50 in series [3] is < 100 nM.

Turning to `Cc1cc(N)nc(C)c1CNC(=O)c1cn(Cc2ccc3ncc(Cl)cc3c2)c2ncncc12` [Example 32, N-((6-amino-2,4-dimethylpyridin-3-yl)methyl)-7-((3-chloroquinolin-6-yl)methyl)-7H-pyrrolo[2,3-d]pyrimidine-5-carboxamide], in series [1] (rat, read-out: AUC), the AUC was < 100 ng·h/mL. Also, in series [2], the IC50 was < 100 nM. Moreover, the EC50 in series [3] is < 100 nM.

Regarding `Cc1cc(N)nc(C)c1CNC(=O)c1cn(Cc2ccc3ncc(Cl)cc3c2)c2ncccc12` [Example 12, N-((6-amino-2,4-dimethylpyridin-3-yl)methyl)-1-((3-chloroquinolin-6-yl)methyl)-1H-pyrrolo[2,3-b]pyridine-3-carboxamide], the AUC in series [1] (rat, read-out: AUC) was 100 to 1000 ng·h/mL. In series [2], the IC50 was < 100 nM. In series [3], the EC50 was < 100 nM.

“N-((6-amino-2,4-dimethylpyridin-3-yl)methyl)-1-((3-chloroquinolin-6-yl)methyl)-3-cyano-1H-pyrazole-4-carboxamide [Example 26]”: the AUC entry in series [1] is on record as “B (>100 ng · h/mL to ≤1000 ng · h/mL)”. In series [2], the IC50 is < 100 nM. The EC50 in series [3] (setting [4]) fell in the range of 100 to 1000 nM.

For `Cc1cnc2c(C(C)(C)O)cc(Cn3ncc(C(=O)NCc4c(C)cc(N)nc4C)c3C#N)cc2c1` [Example 67, N-((6-amino-2,4-dimethylpyridin-3-yl)methyl)-5-cyano-1-((8-(2-hydroxypropan-2-yl)-3-methylquinolin-6-yl)methyl)-1H-pyrazole-4-carboxamide], in series [1] (rat, read-out: AUC), the AUC is < 100 ng·h/mL. Besides, the IC50 in series [2] is 1000 to 10000 nM. Moreover, in series [3] (setting [4]), the EC50 was < 100 nM.

As to “2-amino-N-((6-amino-2,4-dimethylpyridin-3-yl)methyl)-1-((3-chloroquinolin-6-yl)methyl)-1H-imidazole-4-carboxamide [Example 24]”, the AUC result in series [1] is given as “B (>100 ng · h/mL to ≤1000 ng · h/mL)”. Further, the IC50 in series [2] is < 100 nM. Besides, the EC50 in series [3] (setting [4]) is < 100 nM.

With `Cc1cc(N)nc(C)c1CNC(=O)c1cn(Cc2ccc3ncc(Cl)cc3c2)nc1C(F)(F)F` [Example 15, N-((6-amino-2,4-dimethylpyridin-3-yl)methyl)-1-((3-chloroquinolin-6-yl)methyl)-3-(trifluoromethyl)-1H-pyrazole-4-carboxamide], the AUC in series [1] (rat, read-out: AUC) lay within 1000 to 10000 ng·h/mL. Further, the IC50 in series [2] was < 100 nM. The EC50 in series [3] (setting [4]) is < 100 nM.

`Cc1cc(N)nc(C)c1CNC(=O)c1noc(Cc2ccc3ncc(Cl)cc3c2)n1` [Example 7, N-((6-amino-2,4-dimethylpyridin-3-yl)methyl)-5-((3-chloroquinolin-6-yl)methyl)-1,2,4-oxadiazole-3-carboxamide]: the AUC in series [1] (rat, read-out: AUC) fell in the range of 1000 to 10000 ng·h/mL. The IC50 in series [2] is < 100 nM. Besides, the EC50 in series [3] (setting [4]) is < 100 nM.

As to `Cc1cc(N)nc(C)c1CNC(=O)c1cn(Cc2ccc3ncc(Cl)cc3c2)nc1CN` [Example 27, N-((6-amino-2,4-dimethylpyridin-3-yl)methyl)-3-(aminomethyl)-1-((3-chloroquinolin-6-yl)methyl)-1H-pyrazole-4-carboxamide], in series [1] (rat, read-out: AUC), the AUC is < 100 ng·h/mL. Besides, the half-inhibitory concentration (IC50) in series [2] was < 100 nM. Besides, the EC50 in series [3] (setting [4]) is < 100 nM.

In the case of `Cc1cnc2c(C#N)cc(Cn3cc(C(=O)NCc4c(C)cc(N)nc4C)c(C#N)n3)cc2c1` [Example 62, N-((6-amino-2,4-dimethylpyridin-3-yl)methyl)-3-cyano-1-((8-cyano-3-methylquinolin-6-yl)methyl)-1H-pyrazole-4-carboxamide], the AUC in series [1] (rat, read-out: AUC) was < 100 ng·h/mL. The IC50 in series [2] is < 100 nM. Further, the concentration giving a half-maximal response (EC50) in series [3] (setting [4]) was < 100 nM.

Consider `CC(C)(O)c1cc(Cn2cc(C(=O)NCc3ccc4c(N)nccc4c3)c(C#N)n2)cc2cc(Cl)cnc12` [Example 59, N-((1-aminoisoquinolin-6-yl)methyl)-1-((3-chloro-8-(2-hydroxypropan-2-yl)quinolin-6-yl)methyl)-3-cyano-1H-pyrazole-4-carboxamide], for which the AUC in series [1] (rat, read-out: AUC) was < 100 ng·h/mL. Besides, in series [2], the concentration for half-maximal inhibition (IC50) was < 100 nM. In addition, the EC50 in series [3] (setting [4]) is < 100 nM.

On to `Cc1cc(N)nc(C)c1CNC(=O)c1cn(Cc2ccc3ncc(C4CC4)cc3c2)nc1C#N` [Example 65, N-((6-amino-2,4-dimethylpyridin-3-yl)methyl)-3-cyano-1-((3-cyclopropylquinolin-6-yl)methyl)-1H-pyrazole-4-carboxamide], for which the AUC in series [1] (rat, read-out: AUC) was 100 to 1000 ng·h/mL. The IC50 in series [2] is < 100 nM. For the same compound, in series [3] (setting [4]), the EC50 is < 100 nM.

For `Cc1cc(N)nc(C)c1CNC(=O)c1cn(Cc2ccc3ncc(Cl)cc3c2)c(N)n1` [Example 28, 2-amino-N-((6-amino-2,4-dimethylpyridin-3-yl)methyl)-1-((3-chloroquinolin-6-yl)methyl)-1H-imidazole-4-carboxamide], the exposure (AUC) in series [1] (rat, read-out: AUC) was < 100 ng·h/mL. For the same compound, the IC50 in series [2] was < 100 nM. In addition, the EC50 in series [3] (setting [4]) is < 100 nM.

Consider `Cc1cc(N)nc(C)c1CNC(=O)c1nn(Cc2ccc3ncc(Cl)cc3c2)c2cncc(C#N)c12` [Example 129, N-((6-amino-2,4-dimethylpyridin-3-yl)methyl)-1-((3-chloroquinolin-6-yl)methyl)-4-cyano-1H-pyrazolo[3,4-c]pyridine-3-carboxamide], for which the AUC in series [1] (rat, read-out: AUC) was < 100 ng·h/mL. Besides, the IC50 in series [2] was < 100 nM. Also, the EC50 in series [3] was < 100 nM.
